Where two headings read alike, the source gives them in different places.
Assays:
[1] = system: rice plants comprising the TaQ8GTC0 gene introduced therein; assay: Herbicide resistance test of rice plants comprising the TaQ8GTC0 gene, gellan gum medium, plant height; type: in vivo; details: for IC50: Oryza sativa, read-out: I50
Method: (§1) Hoagland's mix and 3 g of gellan gum were suspended in 1 liter of distilled water and thoroughly dissolved therein by heating in a microwave. A fraction of the resultant (15 ml) was injected into a tubular bottle before it was cooled (30 ml was injected into the plate). The herbicide was simultaneously added at the time of injection of the gellan gum medium into the tubular bottle or plate, followed by thorough mixing. Rice hulls were soaked in a 50-fold diluted sodium hypochlorite solution (antiformin) (Wako) for approximately 20 minutes and then thoroughly washed with water. Sterilized seeds were soaked in distilled water and allowed to stand at 27° C. for germination (for approximately 2 days). Germinating seeds were softly planted in the gellan gum medium (plate) containing 0.25 μM BS. These samples, together with a beaker filled with distilled water, were placed in a transparent case, which was then covered with a clear plastic wrap. These samples were grown at 27° C. under fluorescent light illumination (14 hours of a light period and 10 hours of a dark period) for 2 days. Thereafter, rice seeds that were determined to have BS resistance with the use of root elongation as the indicator were transferred to gellan gum media containing pyroxasulfone (tubal bottles) at the final concentrations of 10^−8, 10^−7, 10^−6, and 10^−5M, respectively. Subsequently, these samples, together with a beaker filled with distilled water, were placed in a transparent case, which was then covered with a clear plastic wrap. These samples were grown at 27° C. under fluorescent light illumination (14 hours of a light period and 10 hours of a dark period) for 4 to 5 days, and the plant heights were then measured. Inhibition of shoot growth was determined by comparison to control plants grown in the absence of pyroxasulfone and the concentration for required 50% inhibition (IC50) was determined by the Probit method.
Resistance of rice plants comprising the TaQ8GTC0 gene introduced therein to VLCFAE-inhibiting herbicides was tested in the same manner as with the pyroxasulfone resistance test described above.
FIGS. 7-1 to 7-6 show the results. In FIGS. 7-1 to 7-6, the concentration of 0 μM, the minimal concentration shown in Table 4 (×1), the concentration 4 times higher than the minimal concentration shown in Table 4 (×4), and the concentration 16 times higher than the minimal concentration shown in Table 4 (×16) are shown successively from left to right.

[2] = system: transgenic rapeseed plants comprising the TaQ8GTC0 gene; assay: Rapeseed sensitivity test 2 (agar medium), transgenic; type: in vivo, Brassica napus; details: 10 μM pyroxasulfone, 22° C., 2 weeks
Source text: In order to investigate the extent of pyroxasulfone resistance of the transgenic rapeseed plants comprising the […] gene introduced therein compared to wild-type plants, the growth of rapeseed was examined in an agar medium containing pyroxasulfone. Wild-type rapeseed plants (variety: Westar) and transgenic rapeseed plants comprising the TaQ8GTC0 gene introduced therein were subjected to the growth inhibitory test in an agar medium, so as to examine the resistance thereof to pyroxasulfone.
The medium (1 liter) used in the test was composed of 1× Murashige-Skoog (MS) media (a bag), thiamin hydrochloride (3 μg/ml), nicotinic acid (5 μg/ml), pyridoxin hydrochloride (0.5 μg/ml), and 1% (w/v) sucrose. The composition was added to a 1-liter beaker, a pH was adjusted to 5.7, and the volume of the composition was adjusted to 1 liter, followed by the addition of 8 g (0.8%) of agar. Thereafter, the composition was autoclaved, the temperature was cooled to room temperature, and pyroxasulfone (acetone solution) at a given concentration was added. […]
The sensitivity of rapeseed was examined in agar media comprising pyroxasulfone (0.1 μM, 1 μM, 10 μM, and 100 μM). […] Values in the table in FIGS. 41 and 42 are expressed as the mean±standard deviation (n=4 to 5). Values in FIG. 43 are expressed as the means (n=4 to 5).

cultured rice cells = details: culture in a pyroxasulfone-containing liquid medium; cited from earlier work
ZmQ9FQD1 = assay: Pyroxasulfone metabolizing activity based on the growth of cultured rice cells in medium; type: cell-based, maize; details: cultured rice cells with ZmQ9FQD1 gene; N6D medium, 100 μM (10^−4M) pyroxasulfone, 2 weeks
Method: (§2) The 2 lineages of cultured rice cells comprising the maize GST genes introduced thus prepared and the KLB-279 cultured transgenic rice cells (the control cells) were seeded on N6D medium, and pyroxasulfone resistance was inspected based on the growth of cultured rice cells 2 weeks later. Pyroxasulfone was subjected to the test as an acetone solution, the final acetone concentration to be added to the medium was 1%, and the final drug concentration was 10^−4 M.

ZmB8A3K0 = assay: as above; type: cell-based, maize; details: cultured rice cells with ZmB8A3K0 gene; N6D medium, 100 μM (10^−4M) pyroxasulfone, 2 weeks
Method: as §2

wild-type rice = assay: Pyroxasulfone resistance test, wild-type rice, gellan gum medium, plant height; type: in vivo; details: Oryza sativa, shoot growth, 4 to 5 days, Probit method, read-out: I50
Method: as §1, with “These samples, together with a beaker filled with distilled water, were placed in a transparent case, which was then covered with a clear plastic wrap. These samples were grown at 27° C. under fluorescent light illumination (14 hours of a light period and 10 hours of a dark period) for 2 days.” left out, “Subsequently, these samples, together with a beaker filled with distilled water, were placed in a transparent case, which was then covered with a clear plastic wrap.” left out, “Inhibition of shoot growth was determined by comparison to control plants grown in the absence of pyroxasulfone and the concentration for required 50% inhibition (IC50) was determined by the Probit method.” left out

## Cn1nc(C(F)(F)F)c(CS(=O)(=O)C2=NOC(C)(C)C2)c1OC(F)F [Pyroxasulfone, 3-[5-(difluoromethoxy)-1-methyl-3-(trifluoromethyl)pyrazol-4-ylmethylsulfonyl]-4,5-dihydro-5,5-dimethyl-1,2-oxazole]
[1]; 16 lines among 18 lines used in the test
  pyroxasulfone resistance relative to wild-type plants: ≥ 10 times
[1]; lineage #1-3
  IC50: 1140 nM
  Pyroxasulfone resistance (ratio of IC50 of transformed rice to IC50 of wild-type rice): 29
[1]; lineage #1-4
  IC50: 1310 nM
  Pyroxasulfone resistance (ratio of IC50 of transformed rice to IC50 of wild-type rice): 33
[1]; lineage #1-7
  IC50: 969 nM
  Pyroxasulfone resistance (ratio of IC50 of transformed rice to IC50 of wild-type rice): 25
[1]; lineage #1-10
  IC50: 510 nM
  Pyroxasulfone resistance (ratio of IC50 of transformed rice to IC50 of wild-type rice): 13
[1]; lineage #2-6
  IC50: 968 nM
  Pyroxasulfone resistance (ratio of IC50 of transformed rice to IC50 of wild-type rice): 25
[1]; lineage #2-9
  IC50: 1090 nM
  Pyroxasulfone resistance (ratio of IC50 of transformed rice to IC50 of wild-type rice): 28
[1]; lineage #3-4
  IC50: 1720 nM
  Pyroxasulfone resistance (ratio of IC50 of transformed rice to IC50 of wild-type rice): 44
[1]; lineage #3-9
  IC50: 1010 nM
  Pyroxasulfone resistance (ratio of IC50 of transformed rice to IC50 of wild-type rice): 26
[1]; lineage #3-12
  IC50: 67 nM
  Pyroxasulfone resistance (ratio of IC50 of transformed rice to IC50 of wild-type rice): 2
[1]; lineage #3-13
  IC50: 13800 nM
  Pyroxasulfone resistance (ratio of IC50 of transformed rice to IC50 of wild-type rice): 353
[1]; lineage #4-1
  IC50: 496 nM
  Pyroxasulfone resistance (ratio of IC50 of transformed rice to IC50 of wild-type rice): 13
[1]; lineage #4-3
  IC50: 4320 nM
  Pyroxasulfone resistance (ratio of IC50 of transformed rice to IC50 of wild-type rice): 111
[1]; lineage #4-7
  IC50: 7150 nM
  Pyroxasulfone resistance (ratio of IC50 of transformed rice to IC50 of wild-type rice): 183
[1]; lineage #4-10
  IC50: 2120 nM
  Pyroxasulfone resistance (ratio of IC50 of transformed rice to IC50 of wild-type rice): 54
[1]; lineage #4-13
  IC50: 3850 nM
  Pyroxasulfone resistance (ratio of IC50 of transformed rice to IC50 of wild-type rice): 99
[1]; lineage #4-14
  IC50: 45 nM
  Pyroxasulfone resistance (ratio of IC50 of transformed rice to IC50 of wild-type rice): 1
[1]; lineage #5-1
  IC50: 968 nM
  Pyroxasulfone resistance (ratio of IC50 of transformed rice to IC50 of wild-type rice): 25
[1]; lineage #5-11
  IC50: 983 nM
  Pyroxasulfone resistance (ratio of IC50 of transformed rice to IC50 of wild-type rice): 25
[1]; lineage #3-13, listed as pyroxasulfone
  Pyroxasulfone resistance (ratio of IC50 of transformed rice to IC50 of wild-type rice): approximately 350
[1]; lineage #3-13, minimal concentration (×1), ×4 and ×16 of Table 4
  growth of rice plants comprising the TaQ8GTC0 gene on herbicide medium: the growth thereof was not affected at the maximal test concentration
[1]; lineage #4-7, no data disclosed
  resistance to pyroxasulfone: high level of resistance
[2]
  inhibition ratio on foliage leaf development: 1.2±2.7%
  inhibition ratio on plant height: 7.8±5.9%
Cultured rice cells
  C15:0 (pentadecanoic acid) content: remarkably increased
  content of very-long-chain fatty acid (VLCFA): drastically decreases
ZmQ9FQD1
  pyroxasulfone metabolizing activity (growth of cultured rice cells): no pyroxasulfone metabolizing activity
ZmB8A3K0
  pyroxasulfone metabolizing activity (growth of cultured rice cells): no pyroxasulfone metabolizing activity
wild-type rice
  IC50: 39 nM

Reference: patent US11198710B2, “Transgenic plant having herbicide resistance” (priority 2016, dated 2021)
